The source of these data is patent publication US9283242B2, “Uses of dihydro bases” (priority 2013, dated 2016).

This test is described as follows: Mutagenesis model: base-pairing preference of tautomers combined with NMR tautomeric distribution. The following applies: assuming imine geometric isomers present in equal proportions. How it is done:
One of the fundamental assumptions in developing a mutagenesis model is that each KP1212 tautomer has a distinct base-pairing preference. To establish these preferences, in a relatively simple modeling exercise each tautomer was analyzed for its most probable base-pairing partner on the basis of hydrogen bonding. The primary criterion for correct base-pairing was formation of the maximum number of Watson-Crick type hydrogen bonds between the bases. Each type of hydrogen bond was considered to confer an equal stabilization energy. Configurations in which multiple base pairs had equal hydrogen bond numbers were considered equally probable. Since KP1212 is a cytosine (pyrimidine) analog, and the primary mutagenic events are A to G or G to A, our modeling exercise explored only purine-pyrimidine putative base pairs. Several KP1212 tautomers featured a canonical Watson-Crick face. Thus, tautomers enol-amino (1), enol-imino (2Z) and keto-amino (4) were predicted to pair with guanine, while keto-imino (5E) was predicted to pair with adenine (FIG. 19). The remaining tautomers could not adopt a canonical Watson-Crick face and therefore were hypothesized to pair in other geometries (i.e., wobble pairings, or syn-conformer pairings). […]

Each structure is given as a SMILES string.

With `NC1=NC(=O)N([C@H]2C[C@H](O)[C@@H](CO)O2)CN1` [KP1212, 5-aza-5,6-dihydro-2′-deoxycytidine], the “model-predicted pairing with A” value was ~20 % of the time and the “model-predicted pairing with G” value is reported as ~80 % of the time.
